Measurements reported in patent EP0745595A1, “3-(3-Aryloxyphenyl)-1-(substituted methyl)-s-triazine-2,4,6-oxo or thiotrione herbicidal agents” (American Cyanamid Company, priority 1995, dated 1996).

What was measured:
Type in all cases: in vivo
[1] = system: CYPERUS SEROTINUS, ROTTB.; experiment: Preemergence weed control under flooded paddy conditions, CYPSE (Flatsedge); details: 0.500 kg/ha, preemergence, 3-4 weeks after treatment
Outline: (§1)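 Visual 0-9 score (stand, vigor, malformation, size, chlorosis, appearance vs untreated control) taken 3-4 wk after treatment. Test compounds were added into flood water (1.5-3 cm over silt loam) as 50/50 v/v aqueous/acetone, equivalent to about 0.5-0.063 kg/ha a.i.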

[2] = system: ECHINOCHLOA ORYZOIDES (ARD.)FRITSCH; experiment: Preemergence weed control under flooded paddy conditions, ECHORC (Watergrass (Calif.)); details: 0.500 kg/ha, preemergence, 3-4 weeks after treatment
Outline: as §1

[3] = system: AMBROSIA ARTEMISIIFOLIA, L.; experiment: Postemergence herbicidal evaluation, AMBEL (Ragweed, Common)
Outline: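 Postemergence herbicidal activity on AMBEL (common ragweed) was assessed on two-week-old seedlings grown in jiffy flats. Treatment solutions of 50/50 acetone/water with 0.5% TWEEN®20 surfactant were sprayed at 40 psi. After four to five weeks in the greenhouse, plants were scored 0-9 against a control for stand, vigor, malformation, size, chlorosis and overall appearance, with multiple tests averaged.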

[4] = system: SETARIA VIRIDIS, (L) BEAU; experiment: Preemergence herbicidal evaluation, SETVI (Foxtail, Green); details: rated four to five weeks after treatment
Source text: (§2) Results of herbicide evaluation are expressed on a rating scale (0-9). The scale is based upon a visual observation of plant stand, vigor, malformation, size, chlorosis and overall plant appearance as compared with a control.
(§3) The preemergence herbicidal activity of the test compounds of the present invention is exemplified by the following tests in which the seeds of a variety of monocotyledonous and dicotyledonous plants are separately mixed with potting soil and planted on top of approximately one inch of soil in separate pint cups. […] The treated cups are then placed on greenhouse benches, watered and cared for in accordance with conventional greenhouse procedures. From four to five weeks after treatment, the tests are terminated and each cup is examined and rated according to the rating system provided in Example 40.
(§4) The compounds evaluated are reported by compound number given in Example 40.

[5] = system: ECHINOCHLOA CRUS-GALLI, (L) BEAU; experiment: Postemergence herbicidal evaluation, ECHCG (Barnyardgrass); parameters: key to ECHCG rating / Herbicidal effect rating, ECHCG / ECHCG: 0-9 visual rating scale vs untreated control
Outline: (§5)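 Postemergence foliar spray at approximately 0.125–0.500 kg/ha onto two-week seedlings; greenhouse hold, then 0–9 visual injury rating after 4–5 weeks.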

[6] = system: TRITICUM AESTIVUM, CV. APOLLO; experiment: Preemergence herbicidal evaluation, TRZAWO (Wheat, Winter, CV. APOLLO); details: rated four to five weeks after treatment
Outline: (§6)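 Seeds sown in potting soil cups, then sprayed preemergence with aqueous acetone compound solution at about 0.125 to 0.50 kg per hectare. Greenhouse-grown, rated 4–5 weeks after treatment on a 0–9 visual scale against control.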

[…], PRESL. = Preemergence weed control under flooded paddy conditions, MOOVA (Monochoria); details: 0.500 kg/ha, preemergence, 3-4 weeks after treatment
Outline: as §1

[7] = system: AMBROSIA ARTEMISIIFOLIA, L.; experiment: Preemergence herbicidal evaluation, AMBEL (Ragweed, Common); details: rated four to five weeks after treatment
Outline: as §6

CYPERUS IRIA = experiment: Preemergence weed control under flooded paddy conditions, CYPIR (Rice Flatsedge); details: 0.500 kg/ha, preemergence, 3-4 weeks after treatment
Outline: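 This preemergence test mimicked flooded paddy conditions: rice flatsedge propagules were sown in the upper 0.5 cm of silt loam in undrained 32 oz. containers (10.5 cm diameter), with water held 1.5 to 3 cm over the soil. After normal greenhouse care, plants were scored 0-9 for stand, vigor, malformation, size, chlorosis and appearance relative to controls.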

CASSIA OBTUSIFOLIA, L. [8] = experiment: Preemergence herbicidal evaluation, CASOB (Sicklepod); details: rated four to five weeks after treatment
Outline: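 Preemergence herbicidal activity against sicklepod was assessed by planting seed mixed with potting soil atop about one inch of soil in pint cups. After treatment the cups were watered and handled per standard greenhouse practice. Tests ended four to five weeks later, with plant stand, vigor, malformation, size, chlorosis and overall appearance scored 0-9 relative to a control.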

IPOMOEA SPP. = experiment: Preemergence herbicidal evaluation, IPOSS (Morningglory spp.); details: rated four to five weeks after treatment
Source text: as §2, §3, §4

[9] = system: ORYZA SATIVA, L. TEBONNET; experiment: Rice tolerance to post-transplant applications under flooded paddy conditions, ORYSAT (Rice, Tebonnet); details: 0.500 kg/ha, post-transplant rice, 3-4 weeks after treatment
Outline: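 Visual 0-9 rating against untreated control (stand, vigor, malformation, size, chlorosis, overall appearance), taken 3-4 weeks after treatment. Flooded silt loam, water at 1.5-3 cm; two 10-day-old seedlings per pot; compound applied to flooded soil surface 3 days post-transplant at ~0.5-0.063 kg/ha.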

[10] = system: ABUTILON THEOPHRASTI, MEDIC.; experiment: Preemergence herbicidal evaluation, ABUTH (Velvetleaf); details: rated four to five weeks after treatment
Source text: as §2, §3, §4

CASSIA OBTUSIFOLIA, L. [11] = experiment: Postemergence herbicidal evaluation, CASOB (Sicklepod); parameters: key to CASOB rating / Herbicidal effect rating, CASOB / CASOB: 0-9 visual rating scale vs untreated control
Outline: as §5

SAGITTARIA PYGMAEA, L. = experiment: Preemergence weed control under flooded paddy conditions, SAGPY (Arrowhead (Pygmaea)); details: 0.500 kg/ha, preemergence, 3-4 weeks after treatment
Outline: as §1

[12] = system: SETARIA VIRIDIS, (L) BEAU; experiment: Postemergence herbicidal evaluation, SETVI (Foxtail, Green); parameters: key to SETVI rating / Herbicidal effect rating, SETVI / SETVI: 0-9 visual rating scale vs untreated control
Outline: as §5

[13] = system: GLYCINE MAX(L) MERR. CV. WILLIAMS; experiment: Preemergence herbicidal evaluation, GLXMAW (Soybean, Williams); details: rated four to five weeks after treatment
Outline: as §6

[14] = system: ECHINOCHLOA CRUS-GALLI, (L) BEAU; experiment: Preemergence herbicidal evaluation, ECHCG (Barnyardgrass); details: rated four to five weeks after treatment
Outline: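 In this preemergence herbicide test, cups holding seeds of ECHCG sown in potting soil over roughly one inch of soil were treated and then grown under conventional greenhouse care. Tests were ended four to five weeks after treatment, and injury was scored 0-9 from stand, vigor, malformation, size, chlorosis and overall appearance relative to a control.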

Cn1c(=O)n(CC(N)=O)c(=O)n(-c2cccc(Oc3ccc(C(F)(F)F)cc3Cl)c2)c1=O [Compound 46, 3-{5-[(2-Chloro-α,α,α-trifluoro-p-tolyl)-oxy]phenyl}tetrahydro-5-methyl-2,4,6-trioxo-s-triazine-1(2H)-acetamide]
1.0: TRZAWO herbicidal rating ([6]; Rate 0.125 kg/ha) | TRZAWO herbicidal rating ([6]; Rate 0.250 kg/ha) | TRZAWO herbicidal rating ([6]; Rate 0.500 kg/ha) | GLXMAW herbicidal rating ([13]; Rate 0.125 kg/ha) | GLXMAW herbicidal rating ([13]; Rate 0.250 kg/ha) | GLXMAW herbicidal rating ([13]; Rate 0.500 kg/ha)
0.0: Herbicidal effect rating, CYPSE [1] | Herbicidal effect rating, ECHORC [2] | AMBEL rating ([3]; Rate 0.125 kg/ha) | AMBEL rating ([3]; Rate 0.250 kg/ha) | AMBEL rating ([3]; Rate 0.500 kg/ha) | SETVI herbicidal rating ([4]; Rate 0.125 kg/ha) | SETVI herbicidal rating ([4]; Rate 0.250 kg/ha) | SETVI herbicidal rating ([4]; Rate 0.500 kg/ha) | ECHCG rating ([5]; Rate 0.125 kg/ha) | ECHCG rating ([5]; Rate 0.250 kg/ha) | ECHCG rating ([5]; Rate 0.500 kg/ha) | Herbicidal effect rating, MOOVA ([…], PRESL.) | AMBEL herbicidal rating ([7]; Rate 0.125 kg/ha) | AMBEL herbicidal rating ([7]; Rate 0.250 kg/ha) | AMBEL herbicidal rating ([7]; Rate 0.500 kg/ha) | Herbicidal effect rating, CYPIR (CYPERUS IRIA) | CASOB herbicidal rating (CASSIA OBTUSIFOLIA, L. [8]; Rate 0.125 kg/ha) | CASOB herbicidal rating (CASSIA OBTUSIFOLIA, L. [8]; Rate 0.250 kg/ha) | CASOB herbicidal rating (CASSIA OBTUSIFOLIA, L. [8]; Rate 0.500 kg/ha) | IPOSS herbicidal rating (IPOMOEA SPP.; Rate 0.125 kg/ha) | IPOSS herbicidal rating (IPOMOEA SPP.; Rate 0.250 kg/ha) | IPOSS herbicidal rating (IPOMOEA SPP.; Rate 0.500 kg/ha) | Herbicidal effect rating, ORYSAT [9] | ABUTH herbicidal rating ([10]; Rate 0.125 kg/ha) | ABUTH herbicidal rating ([10]; Rate 0.250 kg/ha) | ABUTH herbicidal rating ([10]; Rate 0.500 kg/ha) | CASOB rating (CASSIA OBTUSIFOLIA, L. [11]; Rate 0.125 kg/ha) | CASOB rating (CASSIA OBTUSIFOLIA, L. [11]; Rate 0.250 kg/ha) | CASOB rating (CASSIA OBTUSIFOLIA, L. [11]; Rate 0.500 kg/ha) | Herbicidal effect rating, SAGPY (SAGITTARIA PYGMAEA, L.) | SETVI rating ([12]; Rate 0.125 kg/ha) | SETVI rating ([12]; Rate 0.250 kg/ha) | SETVI rating ([12]; Rate 0.500 kg/ha) | ECHCG herbicidal rating ([14]; Rate 0.125 kg/ha) | ECHCG herbicidal rating ([14]; Rate 0.250 kg/ha) | ECHCG herbicidal rating ([14]; Rate 0.500 kg/ha)
